Assays:
[1] = system: HOP-62; assay: panel of 60 human tumor cell lines, growth inhibition (Non-Small Cell Lung Cancer); conditions: HOP-62
[2] = system: SN12C; assay: panel of 60 human tumor cell lines, growth inhibition (Renal Cancer)
[3] = system: MCF7; assay: panel of 60 human tumor cell lines, growth inhibition (Breast Cancer); conditions: MCF7
[4] = system: CCRF-CEM; assay: panel of 60 human tumor cell lines, growth inhibition (Leukemia)
[5] = system: U251; assay: panel of 60 human tumor cell lines, growth inhibition (CNS Cancer); conditions: U251
[6] = system: CAKI-1
[7] = system: T-47D
[8] = system: MDA-MB-435; assay: panel of 60 human tumor cell lines, growth inhibition (Melanoma); conditions: MDA-MB-435
[9] = system: ACHN; assay: panel of 60 human tumor cell lines, growth inhibition (Renal Cancer)
[10] = system: SK-OV-3; assay: panel of 60 human tumor cell lines, growth inhibition (Ovarian Cancer); conditions: SK-OV-3
[11] = system: OVCAR-8; assay: as above; conditions: OVCAR-8
[12] = system: NCI-H226; assay: panel of 60 human tumor cell lines, growth inhibition (Non-Small Cell Lung Cancer); conditions: NCI-H226
[13] = system: UO-31; assay: panel of 60 human tumor cell lines, growth inhibition (Renal Cancer); conditions: UO-31
[14] = system: LOX IMVI; assay: panel of 60 human tumor cell lines, growth inhibition (Melanoma)
[15] = system: 786-0; assay: panel of 60 human tumor cell lines, growth inhibition (Renal Cancer); conditions: 786-0
[16] = system: SK-MEL-5; assay: panel of 60 human tumor cell lines, growth inhibition (Melanoma); conditions: 8K-MEL-5
[17] = system: MDA-MB-231/ATCC; assay: panel of 60 human tumor cell lines, growth inhibition (Breast Cancer); conditions: MDA-MB-231/ATCC
[18] = system: HCC-2998; assay: panel of 60 human tumor cell lines, growth inhibition (Colon Cancer); conditions: HCC-2998
[19] = system: NCI-H460; assay: panel of 60 human tumor cell lines, growth inhibition (Non-Small Cell Lung Cancer); conditions: NCI-H460
[20] = system: SR; assay: panel of 60 human tumor cell lines, growth inhibition (Leukemia)
[21] = system: M14; assay: panel of 60 human tumor cell lines, growth inhibition (Melanoma); conditions: M14

C=C1C(=O)O[C@H]2[C@H]1CC/C(COC(=O)CCC(=O)N1CCC(C)CC1)=C\CC[C@@]1(C)O[C@@H]21 [JVM 2-70]
Percent Growth ([1]; Log10 Concentration −4.0): −68%
Percent Growth ([1]; Log10 Concentration −5.0): 78%
Percent Growth ([1]; Log10 Concentration −6.0): 91%
Percent Growth ([1]; Log10 Concentration −7.0): 92%
Percent Growth ([1]; Log10 Concentration −8.0): 86%
GI50 ([1]; NCI five dose): 15.5 µM
TGI ([1]; NCI five dose): 3.41E−5
Percent Growth ([2]; Log10 Concentration −4.0): −82%
Percent Growth ([2]; Log10 Concentration −5.0): 30%
Percent Growth ([2]; Log10 Concentration −6.0): 92%
Percent Growth ([2]; Log10 Concentration −7.0): 93%
Percent Growth ([2]; Log10 Concentration −8.0): 97%
GI50 ([2]; NCI five dose): 4.8 µM
TGI ([2]; NCI five dose): 1.86E−5
Percent Growth ([3]; Log10 Concentration −4.0): −63%
Percent Growth ([3]; Log10 Concentration −5.0): 4%
Percent Growth ([3]; Log10 Concentration −6.0): 74%
Percent Growth ([3]; Log10 Concentration −7.0): 88%
Percent Growth ([3]; Log10 Concentration −8.0): 83%
GI50 ([3]; NCI five dose): 2.22 µM
TGI ([3]; NCI five dose): 1.16E−5
Percent Growth ([4]; Log10 Concentration −4.0): −56%
Percent Growth ([4]; Log10 Concentration −5.0): −32%
Percent Growth ([4]; Log10 Concentration −6.0): 64%
Percent Growth ([4]; Log10 Concentration −7.0): 92%
Percent Growth ([4]; Log10 Concentration −8.0): 98%
GI50 ([4]; NCI five dose): 1.4 µM
TGI ([4]; NCI five dose): 4.68E−6
Percent Growth ([5]; Log10 Concentration −4.0): −90%
Percent Growth ([5]; Log10 Concentration −5.0): 90%
Percent Growth ([5]; Log10 Concentration −6.0): 99%
Percent Growth ([5]; Log10 Concentration −7.0): 95%
Percent Growth ([5]; Log10 Concentration −8.0): 95%
GI50 ([5]; NCI five dose): 16.7 µM
TGI ([5]; NCI five dose): 3.16E−5
CC50 [6]: 36.2 µM
CC50 [7]: > 100 µM
Percent Growth ([8]; Log10 Concentration −4.0): −72%
Percent Growth ([8]; Log10 Concentration −5.0): 32%
Percent Growth ([8]; Log10 Concentration −6.0): 90%
Percent Growth ([8]; Log10 Concentration −7.0): 95%
Percent Growth ([8]; Log10 Concentration −8.0): 89%
GI50 ([8]; NCI five dose): 4.84 µM
TGI ([8]; NCI five dose): 2.03E−5
Percent Growth ([9]; Log10 Concentration −4.0): −79%
Percent Growth ([9]; Log10 Concentration −5.0): 2%
Percent Growth ([9]; Log10 Concentration −6.0): 85%
Percent Growth ([9]; Log10 Concentration −7.0): 102%
Percent Growth ([9]; Log10 Concentration −8.0): 98%
GI50 ([9]; NCI five dose): 2.64 µM
TGI ([9]; NCI five dose): 1.05E−5
Percent Growth ([10]; Log10 Concentration −4.0): −10%
Percent Growth ([10]; Log10 Concentration −5.0): 95%
Percent Growth ([10]; Log10 Concentration −6.0): 99%
Percent Growth ([10]; Log10 Concentration −7.0): 101%
Percent Growth ([10]; Log10 Concentration −8.0): 92%
GI50 ([10]; NCI five dose): 26.8 µM
TGI ([10]; NCI five dose): 8.06E−5
Percent Growth ([11]; Log10 Concentration −4.0): −88%
Percent Growth ([11]; Log10 Concentration −5.0): 15%
Percent Growth ([11]; Log10 Concentration −6.0): 89%
Percent Growth ([11]; Log10 Concentration −7.0): 95%
Percent Growth ([11]; Log10 Concentration −8.0): 94%
GI50 ([11]; NCI five dose): 3.37 µM
TGI ([11]; NCI five dose): 1.39E−5
Percent Growth ([12]; Log10 Concentration −4.0): −59%
Percent Growth ([12]; Log10 Concentration −5.0): 19%
Percent Growth ([12]; Log10 Concentration −6.0): 87%
Percent Growth ([12]; Log10 Concentration −7.0): 93%
Percent Growth ([12]; Log10 Concentration −8.0): 92%
GI50 ([12]; NCI five dose): 3.51 µM
TGI ([12]; NCI five dose): 1.75E−5
Percent Growth ([13]; Log10 Concentration −4.0): −84%
Percent Growth ([13]; Log10 Concentration −5.0): 19%
Percent Growth ([13]; Log10 Concentration −6.0): 88%
Percent Growth ([13]; Log10 Concentration −7.0): 94%
Percent Growth ([13]; Log10 Concentration −8.0): 96%
GI50 ([13]; NCI five dose): 3.56 µM
TGI ([13]; NCI five dose): 1.53E−5
Percent Growth ([14]; Log10 Concentration −4.0): −84%
Percent Growth ([14]; Log10 Concentration −5.0): 4%
Percent Growth ([14]; Log10 Concentration −6.0): 91%
Percent Growth ([14]; Log10 Concentration −7.0): 96%
Percent Growth ([14]; Log10 Concentration −8.0): 96%
GI50 ([14]; NCI five dose): 2.95 µM
TGI ([14]; NCI five dose): 1.10E−5
Percent Growth ([15]; Log10 Concentration −4.0): −78%
Percent Growth ([15]; Log10 Concentration −5.0): 39%
Percent Growth ([15]; Log10 Concentration −6.0): 100%
Percent Growth ([15]; Log10 Concentration −7.0): 98%
Percent Growth ([15]; Log10 Concentration −8.0): 90%
GI50 ([15]; NCI five dose): 6.64 µM
TGI ([15]; NCI five dose): 2.17E−5
Percent Growth ([16]; Log10 Concentration −4.0): −93%
Percent Growth ([16]; Log10 Concentration −5.0): 42%
Percent Growth ([16]; Log10 Concentration −6.0): 96%
Percent Growth ([16]; Log10 Concentration −7.0): 99%
Percent Growth ([16]; Log10 Concentration −8.0): 98%
GI50 ([16]; NCI five dose): 7.17 µM
TGI ([16]; NCI five dose): 2.05E−5
Percent Growth ([17]; Log10 Concentration −4.0): −85%
Percent Growth ([17]; Log10 Concentration −5.0): 41%
Percent Growth ([17]; Log10 Concentration −6.0): 102%
Percent Growth ([17]; Log10 Concentration −7.0): 97%
Percent Growth ([17]; Log10 Concentration −8.0): 105%
GI50 ([17]; NCI five dose): 7.13 µM
TGI ([17]; NCI five dose): 2.12E−5
Percent Growth ([18]; Log10 Concentration −4.0): −80%
Percent Growth ([18]; Log10 Concentration −5.0): 59%
Percent Growth ([18]; Log10 Concentration −6.0): 110%
Percent Growth ([18]; Log10 Concentration −7.0): 103%
Percent Growth ([18]; Log10 Concentration −8.0): 106%
GI50 ([18]; NCI five dose): 11.5 µM
TGI ([18]; NCI five dose): 2.65E−5
Percent Growth ([19]; Log10 Concentration −4.0): −57%
Percent Growth ([19]; Log10 Concentration −5.0): 77%
Percent Growth ([19]; Log10 Concentration −6.0): 99%
Percent Growth ([19]; Log10 Concentration −7.0): 101%
Percent Growth ([19]; Log10 Concentration −8.0): 100%
GI50 ([19]; NCI five dose): 16 µM
TGI ([19]; NCI five dose): 3.76E−5
Percent Growth ([20]; Log10 Concentration −4.0): −38%
Percent Growth ([20]; Log10 Concentration −5.0): 6%
Percent Growth ([20]; Log10 Concentration −6.0): 84%
Percent Growth ([20]; Log10 Concentration −7.0): 102%
Percent Growth ([20]; Log10 Concentration −8.0): 101%
GI50 ([20]; NCI five dose): 2.72 µM
TGI ([20]; NCI five dose): 1.39E−5
Percent Growth ([21]; Log10 Concentration −4.0): −81%
Percent Growth ([21]; Log10 Concentration −5.0): 21%
Percent Growth ([21]; Log10 Concentration −6.0): 84%
Percent Growth ([21]; Log10 Concentration −7.0): 94%
Percent Growth ([21]; Log10 Concentration −8.0): 91%
GI50 ([21]; NCI five dose): 3.44 µM
TGI ([21]; NCI five dose): 1.60E−5
